Test results as given in patent US20040266791A1 (priority 2003, published 2004).
Where a name gives a salt, the structure may show the parent alone.

Columns and labels:
[1] = cited from earlier work
[2] = Hygroscopicity test / water content by Karl Fischer titration; format: physicochemical; conditions: for Water content in % at 2 weeks, 40/75: 40° C./75% relative humidity; for Water content in % at 2 weeks, normal: normal conditions (open air); for Water content in % at t = 0: before storage, Karl Fischer; for water content: isolated dried product of the example
Protocol: The salts were subjected to storage at normal conditions (open air) and at 40° C./75% relative humidity. Water content was determined by Karl Fischer titration.

[3] = 1 mg/ml aqueous solution, 2% sorbitol, 0.2% benzoic acid, stress temperatures up to 80° C.
Protocol: Dissolve the benzoic acid in 60% of the water (heat if necessary to 90° C., allow to cool afterwards). […] The sorbitol is dissolved in the remaining water (40%). Combine both solutions and make up the volume with water.

[4] = in water at 20° C., calculated on free base
Protocol: The dissolution of the solid can take a period of time until an equilibrium/steady state between the solid and liquid phases is reached. […] This value is taken as the solubility determination.
Then, 2 ml of the suspension was filtered over a micropore filter. Finally, 1.0 ml of the filtrate was freeze-dried, followed by weight determination of the residue. The maximum amount of the salt dissolved (recalculated to the base), was calculated from this weight determination.

| Compound | Water content in % at 2 weeks, 40/75 [2] [%] | Water content in % at 2 weeks, normal [2] [%] | Water content in % at t = 0 [2] [%] | solubility (calc. on free base) [4] [mg/mL] | further results |
| --- | --- | --- | --- | --- | --- |
| Cc1nc2n(c(=O)c1CCN1CCC(c3noc4cc(F)ccc34)CC1)CCCC2 [Risperidone base, 3-[2-[4-(6-Fluoro-1,2-benzisoxazol-3-yl)-1-piperidinyl]-ethyl]-6,7,8,9-tetrahydro-2-methyl-4-H-pyrido[1,2-a]-pyrimidin-4-one] | – | – | – | – | solubility in water ([1]; background statement, no source given): approximately 4 mg/ml |
| Cc1nc2n(c(=O)c1CCN1CCC(c3noc4cc(F)ccc34)CC1)CCCC2 [Risperidone dihydrochloride] | 0.15 | 0.15 | 0.13 | – | water content after exposure to air under ambient conditions for 3 weeks ([2]; 3 weeks, air, ambient conditions): 3 weeks: 0.30%; absorbed or adsorbed water ([2]; absence of drying, or standing at ambient temperature in open air): less than 0.5%; hygroscopicity ([2]; standing at ambient temperature in open air): not hygroscopic; stability of solution [3]: surprisingly stable |
| Cc1nc2n(c(=O)c1CCN1CCC(c3noc4cc(F)ccc34)CC1)CCCC2.O=C(O)C=CC(=O)O [Risperidone hydrogenmaleate] | 0.07 | 0.09 | 0.09 | – | water content [2]: water content: <0.1%; stability of solution [3]: surprisingly stable |
| Risperidone (L)hemimalate | 1.09 | 0.95 | 0.89 | >300 | stability of solution [3]: surprisingly stable |
| Risperidone Hemifumarate | – | – | – | 3 | – |
| Risperidone acetate monohydrate | 3.66 | 3.39 | 3.78 | 72 | – |
| Risperidone besylate | – | – | – | 6.5 | – |
| Risperidone hemitartrate | 0.59 | 0.56 | 0.28 | 40 | water content [2]: Water content: 0.28% |
| Risperidone mesylate | – | – | 0.41 | >160 | Water content in % at 2 weeks, 40/75 ([2]; listed as Mesylate): 8.51%; Water content in % at 2 weeks, 40/75 ([2]; listed as risperidone mesylate): 2 weeks: 8.51%; Water content in % at 2 weeks, normal ([2]; listed as Mesylate): 1.38%; Water content in % at 2 weeks, normal ([2]; listed as risperidone mesylate): for 2 weeks: 1.38%; water content [2]: water content: 0.41% |
| Risperidone tosylate | – | – | – | 2 | – |
| risperidone tartrate | – | – | – | – | room temperature solubility ([1]; reported in U.S. Pat. No. 5,616,587): about 80 mg/ml |
